Test results: patent publication US11612586B2, “Indole regulation of antigen presenting cells” (THE TEXAS A&M UNIVERSITY SYSTEM, priority 2016, dated 2023)

Legend:
Salmonella Typhimurium [1] = experiment: Salmonella invasion of HeLa epithelial cells (Salmonella exposed to indole); assay type: cell-based
Salmonella Typhimurium [2] = experiment: Salmonella invasion of and intracellular survival in J774.A1 macrophages; assay type: cell-based
[3] = tested on: Salmonella Pathogenicity Island-1 (SPI-1) genes; experiment: Expression of Salmonella Pathogenicity Island-1 genes; assay type: cell-based, Salmonella Typhimurium
NF-kB = NF-kB activity assay in DC2.4-NFkB-GLuc reporter cells; assay type: cell-based, murine; conditions: indole 24 hours, LPS 10 ug/ml
TNF = TNF production in BMDMs, intracellular staining, flow cytometry; assay type: cell-based, mouse
Experimental: BMDMs were treated with indole or DMF control for 18 hours or 4 hours, followed by stimulation with LPS (2 ug/ml or 250 ng/ml) for 4 hours in the presence of Golgiplug. BMDMs were then stained for intracellular TNF or IL-12 and analyzed by flow cytometry.
First, pro-inflammatory cytokine production in macrophages was investigated. […] In the DC study described herein, DCs were typically conditioned with indole during their development from bone marrow precursors in order to mimic the proximity of DC progenitor cells to indole in the intestinal microenvironment during development. […] BMDMs were treated for 18 hours with indole, followed by a 4 hour stimulation with either a very high (2 ug/ml) or low (250 ng/ml) dose of LPS.
Additionally, to determine if recently arrived macrophage precursors might also be affected, BMDMs were next treated for just 4 hours with indole, followed by a […] stimulation with the same LPS concentrations.
To address the question of indole and AhR dependence in macrophages, experiments using BMDMs derived from AhR-knockout mice were run alongside wild-type littermate controls. Specifically, flow cytometric analysis of BMDMs was performed on WT or AhR-KO mice and treated with indole or DMF control for 18 hours. BMDMs were stimulated for 4 hours with LPS (50 ng/ml) in the presence of Golgiplug, then stained for intracellular TNF (left panels) and IL-12 (right panels).
The inventors performed a series of assays where bone marrow derived macrophages (BMDMs), bone marrow derived dendritic cells (BMDCs), and splenic dendritic cells (splenic DCs), were exposed to a series of TDMMs, including indole, indole-3-acetate (I3AT), 5-hydroxyindole (5HI), and indole-3-pyruvate (I3P), as well as indole-3-carbinol (I3C; a plant derived compound) to be used for a positive control (1 mM for 24 hours). The BMDMs and BMDCs were stimulated with LPS for 4 hours and assayed at day 7 for expression of various pro-inflammatory cytokines. In a similar assay, the BMDMs and BMDCs were stimulated with LPS or CpG, respectively, for 15 minutes and assayed for pAKT and pERK signaling, which is a reflection of pro-inflammatory response.
Bone marrow was harvested as described above and cultured at a density of 1×10^6 cells in 10 ml complete media supplemented with 10 ng/ml M-CSF (Peprotech) in 100 mm×15 mm petri dishes. Media with cytokine was replenished on day 3. Adherent and semi-adherent cells were recovered on day 7, plated, and treated with indole prior to downstream experiments.

AhR = molecular target: T1, AhR (Homo sapiens, UniProt P35869); conditions: cited from earlier work
T1 construct: host or cells: CaC-2 intestinal cells; yeast; a liver cancer cell line
T1 sequence (P35869 11-848): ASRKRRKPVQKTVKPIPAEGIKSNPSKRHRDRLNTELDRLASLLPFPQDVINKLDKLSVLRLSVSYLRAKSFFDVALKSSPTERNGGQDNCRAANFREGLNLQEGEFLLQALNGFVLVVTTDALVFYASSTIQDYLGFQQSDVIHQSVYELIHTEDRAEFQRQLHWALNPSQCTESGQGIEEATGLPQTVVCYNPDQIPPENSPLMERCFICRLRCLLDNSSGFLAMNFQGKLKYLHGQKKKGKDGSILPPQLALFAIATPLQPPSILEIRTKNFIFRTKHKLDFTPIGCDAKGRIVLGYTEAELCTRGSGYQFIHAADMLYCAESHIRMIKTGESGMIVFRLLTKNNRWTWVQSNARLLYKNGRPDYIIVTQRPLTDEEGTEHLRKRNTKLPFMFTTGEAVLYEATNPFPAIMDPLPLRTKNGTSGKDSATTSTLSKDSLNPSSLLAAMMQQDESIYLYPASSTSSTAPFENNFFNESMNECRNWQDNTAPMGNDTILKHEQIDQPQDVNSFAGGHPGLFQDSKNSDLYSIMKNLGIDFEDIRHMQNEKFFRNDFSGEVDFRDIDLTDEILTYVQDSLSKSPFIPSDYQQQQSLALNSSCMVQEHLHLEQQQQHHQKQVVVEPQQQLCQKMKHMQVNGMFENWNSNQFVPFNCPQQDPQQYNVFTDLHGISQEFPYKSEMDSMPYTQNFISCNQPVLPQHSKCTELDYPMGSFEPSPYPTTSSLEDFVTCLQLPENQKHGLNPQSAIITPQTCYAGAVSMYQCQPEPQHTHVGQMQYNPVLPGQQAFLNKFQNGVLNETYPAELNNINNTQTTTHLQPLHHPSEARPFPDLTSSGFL

DCs = experiment: Antigen-uptake assay in DCs; conditions: FITC-labeled OVA particles

For c1ccc2[nH]ccc2c1 [Indole, indole], the “decrease of Salmonella invasion of HeLa epithelial cells” value (Salmonella Typhimurium [1]) was 160 fold, the “intracellular survival of Salmonella in J774.A1 macrophages” value (Salmonella Typhimurium [2]) was “not significantly affected” and the “decrease of Salmonella invasion of J774.A1 macrophages” value (Salmonella Typhimurium [2]; Salmonella exposed to indole) was 2 fold. The “expression of four SPI-1 genes involved in invasion” value [3] was “decrease in expression”, the “effect of short chain fatty acids on attenuation of SPI-1 gene expression” value ([3]; indole together with short chain fatty acids) was “synergistically enhanced” and the “inhibition of NF-kB signaling” value (NF-kB) was “approximately one-third”. For the same compound, the “reduction of TNF production” value (TNF; BMDMs from WT or AhR-KO mice, 1 mM indole 18 hours, LPS 50 ng/ml 4 hours) was “approximately 2 fold”, the TNF (TNF; BMDMs, 1 mM TDMM 24 hours, LPS 1 ug/ml 4 hours) was “↓↓↓” and the “inhibition of TNF production” value (TNF; BMDMs, 1 mM indole 18 hours, LPS 2 ug/ml or 250 ng/ml 4 hours) was ~2 fold. The “AhR activity in CaC-2 intestinal cells” value (AhR; previous finding of the inventors) was “antagonist”, the “AhR effect in a liver cancer cell line” value (AhR; previously reported) was “antagonistic” and the “AhR effect in yeast” value (AhR; previously reported) was “agonistic”. The “particle uptake by DCs” value (DCs) was “did not alter particle uptake”.
